Experimental data taken from BindingDB's records for doi:10.1021/jm00148a009 (1985).

target: Prostacyclin synthase (Sus scrofa); assay: Inhibition of porcine aorta prostacyclin PGI-2 synthase by bioassay method

IC50, > 100 µM:
CC(=O)Nc1ccc(OCCn2ccnc2)cc1 [N-[4-(2-Imidazol-1-yl-ethoxy)-phenyl]-acetamide], c1cn(CCOc2ccc(-c3nnn[nH]3)cc2)cn1 [5-[4-(2-Imidazol-1-yl-ethoxy)-phenyl]-1H-tetrazole], O=C(O)Cc1ccccc1OCCn1ccnc1 [[2-(2-Imidazol-1-yl-ethoxy)-phenyl]-acetic acid]
